Measurements as given in patent publication US9828333B2, “Compounds for the treatment of influenza” (CHRISTIAN-ALBRECHTS-UNIVERSITAT ZU KIEL, priority 2011, dated 2017).
Where two headings read alike, the source gives them in different places.

What was measured:
[1] = biological target: neuraminidase of influenza A virus A/Jena/5258/2009 (H1N1-subtype) (Influenza A virus, UniProt A0A088CA11); test: biochemical
[2] = tested on: influenza A virus A/342/2009; test: microbe, parasite or virus in culture; type: cell-based, influenza A virus H1N1; settings: for IC50: read-out: 50% inhibitory concentration, A/342/2009
in vivo = settings: rat; for Plasma level of derivative 9 (Conc.): intravenous administration of derivative 9, 10 mg/kg
Description: Sprague Dawley (SD) rats were supplied for habitation 10 days before the start of the experiment, weighing ˜300-350 g and kept in an air conditioned room with a constant temperature of 20° C. and a humidity of 50%. In this room there was a day-night rhythm of twelve hours. The dark phase began daily at 18 o'clock and turned over to the light phase at 6 clock. The rats were kept over the acclimatization period in standard cages of the size 3 (length: 42 cm, width 26 cm, height: 15 cm) and transferred three days before commencement of an experiment into a special experimental room, placed in the identical environmental conditions. They received a maintenance diet (maintenance diet for rats and mice; No. 1320; Altromin) and tap water ad libitum.
A catheter was implanted in the vein as well as in the arteria femoralis of rats receiving an i.v. administration. Rats receiving only oral administration of substances received a […] catheter only.
The catheterized animals were kept after surgery for a day in the experimental room and individually in their experimental cages. The application of the test compounds was carried out on the second day after the operation. On the experimental day, the rats were weighed one hour prior to the test and the arterial catheter was flushed with 300 μl of heparin solution. Subsequently, the i.v. or oral administration of the compounds was carried out.
The oral administrations were performed as a suspension or solution made with gum arabic (10% w/v) by gavage.
The oral administrations were made as suspension or solution with gum arabic (10% w/v) by gavage.
After i.v. administration, plasma samples were taken at 5, 10, 20, 45, 90, 150, 240 and 360 min, respectively after oral administration after 30, 60, 90, 120, 180, 240 and 360 min. To this, in each case 300 μl of whole blood were taken using an insulin syringe and transferred into EDTA-coated Microvettes CB 300 (Sarstedt, Nümbrecht). After each withdrawal it was rinsed with 100 μl 0.9% saline or every 60 min with heparin solution (250 IU/ml). The blood sample was shaken briefly and put until centrifugation (4° C.; 14000 U/min; 10 min) on ice. Subsequently, the samples were frozen at −80° C.
The plasma samples were processed and analyzed by HPLC. Therefor, the plasma samples were thawed at room temperature. In each case, 80 μl methanol (+0.2% TFA) were prepared and subsequently 80 μl of the plasma samples were pipetted into. The samples were shaken for 45 min to precipitate plasma proteins. The samples were frozen at −80° C., thawed and shaken for another 15 min. The samples were centrifuged for 15 min at 13.000 RPM and the supernatant was transferred into HPLC vials. In each case 50 μl were used for the determinations by LC/MS.
The animal studies were evaluated using the following LC/MS method.

[3] = tested on: influenza A virus A/Jena/5258/2009 (pandemic H1N1; oseltamivir-sensitive); type: cell-based
albumin = albumin (Homo sapiens, UniProt P02768); type: in vitro ADME; settings: 4% albumin solution, average of three concentrations (10, 25, 50 μM)
Description: 3. Determination of Protein Binding of the Amidine Effective Form (3) as Well as of Prodrugs Thereof (2, 4) and of the Guanidine Effective Form (9) as Well as of Prodrugs Thereof (6, 10)
(§1) The plasma protein binding was carried out in three different concentrations (10, 25, and 50 μM). A 4% albumin solution was used as protein solutions. In each case, 50 μl of a 10-fold concentrated substance solution were pipetted in 450 μl of the protein solution. The incubation was carried out for 15 minutes in the shaking water bath at 37° C. Subsequently, the samples were transferred in ultra-filtration units (Vivaspin 500, 10 kDa cut-off) and centrifuged for 15 min at 10.000 rpm. The filtrate was analyzed by HPLC. In addition, a control was run for each concentration, which was not treated with protein and not centrifuged.

physchem = type: physicochemical; settings: aqueous buffer, thermodynamic from solid
Description: 2. Solubility Assays of the Compounds Tested
Determining the Solubility at Different pH Values:
Therefor, a few mg of the compounds were weighed and mixed with the volume of 50 mM KH2PO4 buffer of respective pH value for a 50 mM solution. […] Subsequently, the undissolved portion was removed by centrifugation at 10.000 rpm for 15 min, and the concentration in the supernatant was determined by HPLC.

in vitro = in vitro ADME; settings: human plasma instead of the 4% albumin solution; read-out: Protein binding (converted)
Description: . Therefor, human plasma was used instead of the 4% albumin solution. […]. The values are as expected somewhat higher than the values obtained with the 4% albumin solution and are to be traced back to the presence of other plasma proteins (e.g. α1-acidic glycoprotein) in addition to albumin.
as §1
. Therefor, instead of the 4% albumin solution, human plasma was used. […]. As anticipated, the values are somewhat higher than the values obtained with the 4% albumin solution and are due to the presence of other plasma proteins (e.g., α1-acidic glycoprotein) besides the albumin.

[4] = tested on: influenza A virus A/Jena/5258/2009; test: microbe, parasite or virus in culture; type: cell-based, influenza A virus H1N1; settings: Influenza A virus, MDCK, read-out: 50% inhibitory concentration, A/Jena/5258/2009
[5] = type: in vitro ADME, human; settings: 37° C., up to 120 min
Description: (§2) In addition, the substances were tested in human and murine plasma. Therefor, 630 μl of the plasma as mixed with 70 μl of a 2 mM stock solution of each compound in 10 mM phosphate buffer pH 7.4. The incubations were performed in a shaking water bath at 37° C. The incubation was terminated at the times 15, 30, 45, 60, 90 and 120 min by removal of 100 μl sample and addition of 100 μl acetonitrile. The samples were centrifuged (12,000 rpm/10 min) and the supernatant surveyed by HPLC.
(§3) The stability studies were analyzed using the following HPLC method.

[6] = type: in vitro ADME, murine; settings: 37° C., up to 120 min
Description: as §2, §3

[7] = type: physicochemical; settings: 0.2 mg/ml, pH 7.4 at RT and 4° C. or Aqua bidest at 4° C., 14 days
Description: The storage stability in solution was determined at a concentration of 0.2 mg/ml. Therefor, a compound was dissolved in 50 mM KH2PO4 buffer, pH 7.4 respectively Aqua bidest and stored at RT (pH 7.4) or in a refrigerator at 4° C. (pH 7.4 respectively Aqua bidest) over the test period. The concentration of the active form was determined after 12 h, 1 d, 2 d, 4 d, 7 d and 14 d by HPLC.
Stability Studies for the Amidine Effective Form (3) and Guanidine Effective Form (9) Over 2 Weeks Studies at pH 7.4:
The storage stability in dissolved form was determined at a concentration of 0.2 mg/ml. For this purpose, the compound was dissolved in 50 mM KH2PO4 buffer pH 7.4 or in aqua bidest and stored for the investigation period at RT (pH 7.4) or in a refrigerator at 4° C. (pH 7.4 or aqua bidest). The concentration of the effective form was determined by HPLC after 12 h, 1 d, 2 d, 4 d, 7 d and 14 d.

[8] = rat, in vivo; cited from earlier work
[9] = Sprague Dawley, in vivo, iv, 10 mg/kg
[10] = Sprague Dawley, in vivo, po, 50 mg/kg

Chain of albumin (P02768 25-609): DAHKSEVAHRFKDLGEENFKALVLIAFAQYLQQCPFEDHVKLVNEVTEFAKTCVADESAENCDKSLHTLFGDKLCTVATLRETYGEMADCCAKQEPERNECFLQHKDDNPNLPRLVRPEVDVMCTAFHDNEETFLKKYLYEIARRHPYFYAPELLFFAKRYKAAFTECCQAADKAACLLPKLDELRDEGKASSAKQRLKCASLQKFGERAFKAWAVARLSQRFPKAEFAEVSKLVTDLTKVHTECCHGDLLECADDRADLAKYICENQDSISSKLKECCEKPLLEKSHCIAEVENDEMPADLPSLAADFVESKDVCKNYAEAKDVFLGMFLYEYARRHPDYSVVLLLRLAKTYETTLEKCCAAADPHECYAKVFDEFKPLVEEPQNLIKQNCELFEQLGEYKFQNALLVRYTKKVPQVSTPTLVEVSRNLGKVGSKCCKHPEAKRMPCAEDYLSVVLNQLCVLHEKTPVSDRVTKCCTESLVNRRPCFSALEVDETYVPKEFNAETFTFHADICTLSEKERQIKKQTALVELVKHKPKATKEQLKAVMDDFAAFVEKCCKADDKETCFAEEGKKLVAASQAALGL

CCC(CC)O[C@@H]1C=C(C(=O)O)C[C@H](NC(C)=N)[C@H]1NC(C)=O [Compound 3]
IC50 [1]: 0.0001 µM | IC50 ([2]; Influenza A virus, MDCK): 12.2 µM | IC50 [2]: 12.1 µM | Bioavailability (in vivo; [9]): 100% | MRT (in vivo; [9]): 0.587 h | half-life (in vivo; [9]): 0.642 h | half-life (in vivo; Sprague Dawley, in vivo, po): ~1.87 h | Bioavailability (in vivo; [10]): 3.0% | MRT (in vivo; [10]): 1.867 h | cmax (in vivo; [10]): 0.7 µg/mL | Plasma level of derivative 3 (Conc.) after oral administration of the labelled derivative (in vivo; Sprague Dawley, in vivo, po, 50 mg/kg, 0 min): 0 nM | Plasma level of derivative 3 (Conc.) after oral administration of the labelled derivative (in vivo; Sprague Dawley, in vivo, po, 50 mg/kg, 30 min): 1630 nM | Plasma level of derivative 3 (Conc.) after oral administration of the labelled derivative (in vivo; Sprague Dawley, in vivo, po, 50 mg/kg, 60 min): 1590 nM | Plasma level of derivative 3 (Conc.) after oral administration of the labelled derivative (in vivo; Sprague Dawley, in vivo, po, 50 mg/kg, 90 min): 1500 nM | Plasma level of derivative 3 (Conc.) after oral administration of the labelled derivative (in vivo; Sprague Dawley, in vivo, po, 50 mg/kg, 120 min): 1250 nM | Plasma level of derivative 3 (Conc.) after oral administration of the labelled derivative (in vivo; Sprague Dawley, in vivo, po, 50 mg/kg, 180 min): 610 nM | Plasma level of derivative 3 (Conc.) after oral administration of the labelled derivative (in vivo; Sprague Dawley, in vivo, po, 50 mg/kg, 240 min): 300 nM | Plasma level of derivative 3 (Conc.) after oral administration of the labelled derivative (in vivo; Sprague Dawley, in vivo, po, 50 mg/kg, 360 min): 40 nM | AUC (in vivo; Iv, 10 mg/kg, active form 3 in plasma): 576.8 | 90% inhibitory concentration, A/Jena/5258/2009 [3]: 0.001 (0.011) μM | 95% inhibitory concentration (values in parentheses), A/Jena/5258/2009 [3]: 0.001 (0.011) μM | Protein binding (albumin): 2.2 ± 1.5% | solubility at 30 min (physchem): > 50 mM | fraction unbound (in vitro): 0.963 | IC50 [4]: 2 µM

CCC(CC)O[C@@H]1C=C(C(=O)O)C[C@H](NC(=N)N)[C@H]1NC(C)=O [Compound 9, (3R,4R,5S)-4-acetamido-5-(N-guanidino)-3-(1-ethylpropoxy)cyclohex-1-en-1-carboxylic acid]
IC50 ([2]; Influenza A virus, MDCK): 4.1 µM | AUC (in vivo; [9]): 4880 ng·h/mL | Bioavailability (in vivo; [9]): 100% | MRT (in vivo; [9]): 0.902 h | half-life (in vivo; [9]): 2 h | half-life (in vivo; Sprague Dawley, in vivo, po): ~1.63 h | Plasma level of derivative 9 (Conc.) (in vivo; time 5): 23710 nM | Plasma level of derivative 9 (Conc.) (in vivo; time 10): 18300 nM | Plasma level of derivative 9 (Conc.) (in vivo; time 20): 12670 nM | Plasma level of derivative 9 (Conc.) (in vivo; time 45): 5050 nM | Plasma level of derivative 9 (Conc.) (in vivo; time 90): 1670 nM | Plasma level of derivative 9 (Conc.) (in vivo; time 150): 540 nM | Plasma level of derivative 9 (Conc.) (in vivo; time 240): 230 nM | Plasma level of derivative 9 (Conc.) (in vivo; time 360): 110 nM | 90% inhibitory concentration, A/Jena/5258/2009 [3]: 0.002 (0.003) μM | 95% inhibitory concentration (values in parentheses), A/Jena/5258/2009 [3]: 0.002 (0.003) μM | Protein binding (albumin): 0.4 ± 2.8% | fraction unbound (in vitro): 0.914 | Stability/metabolism by plasma enzymes in human plasma [5]: not metabolized | Stability/metabolism by plasma enzymes in murine plasma [6]: not metabolized | Storage stability in solution [7]: stable | IC50 [4]: 1.1 µM

CCOC(=O)C1=C[C@@H](OC(CC)CC)[C@H](NC(C)=O)[C@@H](N)C1 [Oseltamivir, (3R,4R,5S)-4-acetamido-5-amino-3-(1-ethylpropoxy)cyclohex-1-en-1-carboxylic acid ethyl ester, reference compound]
IC50 [1]: 0.0001 µM | 50% inhibitory concentration, A/342/2009 [2]: resistant | 90% inhibitory concentration, A/Jena/5258/2009 [3]: 0.016 (0.021) μM | 95% inhibitory concentration (values in parentheses), A/Jena/5258/2009 [3]: 0.016 (0.021) μM | IC50 [4]: 13.2 µM | plasma half-life period [8]: 0.733 h
